These results are taken from US7671061B2, “Methods and compositions for treating pain” (Hydra Biosciences, Inc., priority 2005, dated 2010).

Where only a bound is given, the exact number is not on record here.

In the experiment the target is T1, hTRPA1 (Homo sapiens, UniProt O75762, K186N).
T1 construct: expressed in transfected cells; host or cells: HEK293/TREx (Invitrogen), induced with tetracycline
T1 sequence (O75762 whole entry K186N): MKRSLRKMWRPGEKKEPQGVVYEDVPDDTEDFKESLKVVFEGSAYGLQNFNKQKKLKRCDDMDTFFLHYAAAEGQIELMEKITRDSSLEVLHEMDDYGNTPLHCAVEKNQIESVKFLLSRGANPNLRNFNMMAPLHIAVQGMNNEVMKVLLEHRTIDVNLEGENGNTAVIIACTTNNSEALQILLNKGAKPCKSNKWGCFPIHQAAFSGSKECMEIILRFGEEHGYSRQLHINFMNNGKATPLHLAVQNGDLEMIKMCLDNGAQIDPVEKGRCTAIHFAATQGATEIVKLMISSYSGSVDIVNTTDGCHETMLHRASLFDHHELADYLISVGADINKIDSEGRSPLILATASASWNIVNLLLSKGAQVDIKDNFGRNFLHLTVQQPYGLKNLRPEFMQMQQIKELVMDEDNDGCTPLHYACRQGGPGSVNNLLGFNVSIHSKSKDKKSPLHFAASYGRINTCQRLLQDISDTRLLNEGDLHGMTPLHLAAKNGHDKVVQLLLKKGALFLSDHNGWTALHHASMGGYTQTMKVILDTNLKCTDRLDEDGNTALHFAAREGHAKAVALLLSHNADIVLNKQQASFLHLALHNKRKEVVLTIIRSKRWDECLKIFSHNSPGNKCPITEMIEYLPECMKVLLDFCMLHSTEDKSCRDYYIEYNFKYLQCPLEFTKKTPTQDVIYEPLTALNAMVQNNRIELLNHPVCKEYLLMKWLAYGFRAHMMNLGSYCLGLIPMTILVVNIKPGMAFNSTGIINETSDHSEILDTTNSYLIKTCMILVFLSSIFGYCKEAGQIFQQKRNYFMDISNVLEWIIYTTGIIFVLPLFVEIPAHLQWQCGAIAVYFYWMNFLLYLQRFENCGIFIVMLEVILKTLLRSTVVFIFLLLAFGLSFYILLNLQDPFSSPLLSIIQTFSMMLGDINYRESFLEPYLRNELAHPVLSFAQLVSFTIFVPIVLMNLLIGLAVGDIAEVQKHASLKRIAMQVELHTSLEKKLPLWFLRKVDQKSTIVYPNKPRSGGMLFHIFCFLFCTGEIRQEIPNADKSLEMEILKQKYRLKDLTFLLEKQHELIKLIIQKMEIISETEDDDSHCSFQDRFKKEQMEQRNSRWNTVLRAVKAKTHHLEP
Briefly: High throughput Ca2+ fluorescence (Fluo4) assay, AITC stimulation. It is filed as cell-based. The note with it: Table 2; read-out: hTRPA1 Fluor IC50. The method, boiled down: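 Tetracycline-induced HEK293/TREx cells loaded with 1 μM Fluo4/AM for 60 min at room temperature. Compound added for 2 min after a 4-frame baseline, then AITC; fluorescence followed ~3 min.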
As for `CCNC(=O)Cn1cnc2c1c(=O)n(C)c(=O)n2C` [Compound 216], the half-inhibitory concentration (IC50) (as a rule, the concentration that inhibits the measured activity by half) was more than 10 µM.

With `Cn1c(=O)c2c(ncn2CC(=O)NC2CCCC2)n(C)c1=O` [Compound 218], the IC50 was more than 10 µM.

As for `CC(NC(=O)Cn1cnc2c1c(=O)n(C)c(=O)n2C)c1ccccc1` (stereo not drawn) [Compound 220], the IC50 was more than 10 µM.

Turning to `Cn1c(=O)c2c(ncn2CC(=O)Nc2ccccc2Cl)n(C)c1=O` [Compound 221], the IC50 is more than 10 µM.

As for `Cc1ccc(NC(=O)Cn2cnc3c2c(=O)n(C)c(=O)n3C)c([N+](=O)[O-])c1` [Compound 222], the IC50 was more than 10 µM.

As to `Cn1c(=O)c2c(ncn2CC(=O)Nc2cccc([N+](=O)[O-])c2)n(C)c1=O` [Compound 223], the IC50 is not above 10 µM.

As for `Cc1cc([N+](=O)[O-])ccc1NC(=O)Cn1cnc2c1c(=O)n(C)c(=O)n2C` [Compound 227], the IC50 is not below 30 µM.

As for `Cn1c(=O)c2c(ncn2CC(=O)Nc2cccc3ccccc23)n(C)c1=O` [Compound 231], the IC50 was more than 10 µM.

In the case of `Cn1c(=O)c2c(ncn2CC(=O)NCc2ccc(F)cc2)n(C)c1=O` [Compound 238], the half-maximal inhibitory concentration (IC50) is more than 10 µM.

Turning to `Cn1c(=O)c2c(ncn2CC(=O)NCCc2ccccn2)n(C)c1=O` [Compound 241], the IC50 is more than 10 µM.

With `Cn1c(=O)c2c(ncn2CC(=O)NCc2ccncc2)n(C)c1=O` [Compound 242], the concentration for half-maximal inhibition (IC50) is more than 10 µM.

In the case of `Cn1c(=O)c2c(ncn2CC(=O)NCc2ccccn2)n(C)c1=O` [Compound 243], the IC50 was more than 10 µM.

Take `Cn1c(=O)c2c(ncn2CC(=O)Nc2ccc(F)c(F)c2)n(C)c1=O` [Compound 245]: the concentration for half-maximal inhibition (IC50) is not above 10 µM.

Take `Cn1c(=O)c2c(ncn2CC(=O)Nc2ccc3c(c2)OCCO3)n(C)c1=O` [Compound 246]: the half-maximal inhibitory concentration (IC50) was more than 10 µM.

Take `Cn1c(=O)c2c(ncn2CC(=O)Nc2ccc(N3CCOCC3)cc2)n(C)c1=O` [Compound 247]: the IC50 is not above 5 µM.

On to `Cn1c(=O)c2c(ncn2CC(=O)Nc2ccccc2N2CCOCC2)n(C)c1=O` [Compound 248], for which the IC50 was more than 10 µM.

As for `COc1ccc(Nc2ccc(NC(=O)Cn3cnc4c3c(=O)n(C)c(=O)n4C)cc2)cc1` [Compound 249], the IC50 was not below 20 µM.

For `COc1cc2c(cc1NC(=O)Cn1cnc3c1c(=O)n(C)c(=O)n3C)oc1ccccc12` [Compound 253], the 50% inhibitory concentration (IC50) is more than 10 µM.

For the compound `CCn1c2ccccc2c2cc(NC(=O)Cn3cnc4c3c(=O)n(C)c(=O)n4C)ccc21` [Compound 254], the half-inhibitory concentration (IC50) was more than 10 µM.

On to `Cc1cc(NC(=O)Cn2cnc3c2c(=O)n(C)c(=O)n3C)n(-c2ccccc2)n1` [Compound 255], for which the IC50 is not below 20 µM.

As to `Cn1c(=O)c2c(ncn2CC(=O)NCCOC(=O)c2ccc(Cl)cc2)n(C)c1=O` [Compound 256], the concentration for half-maximal inhibition (IC50) was more than 10 µM.

Regarding `Cn1c(=O)c2c(ncn2CC(=O)Nc2ccccc2Cc2ccccc2)n(C)c1=O` [Compound 258], the IC50 was more than 10 µM.

Consider `Cc1ccc(NC(=O)Cn2cnc3c2c(=O)n(C)c(=O)n3C)cc1` [Compound 259], for which the IC50 is more than 10 µM.

As to `Cn1c(=O)c2c(ncn2CC(=O)Nc2ccccc2-c2nc3ccccc3[nH]2)n(C)c1=O` [Compound 260], the half-inhibitory concentration (IC50) was more than 10 µM.

As for `Cc1ccc(NC(=O)Cn2cnc3c2c(=O)n(C)c(=O)n3C)c(Cl)c1` [Compound 263], the concentration for half-maximal inhibition (IC50) is more than 10 µM.

In the case of `Cc1ccc(NC(=O)Cn2cnc3c2c(=O)n(C)c(=O)n3C)c(Br)c1` [Compound 265], the IC50 was not below 20 µM.

Consider `Cc1ccc(-c2csc(NC(=O)Cn3cnc4c3c(=O)n(C)c(=O)n4C)n2)cc1C` [Compound 270], for which the half-maximal inhibitory concentration (IC50) is more than 10 µM.

Turning to `Cc1cc(C)c(-c2csc(NC(=O)Cn3cnc4c3c(=O)n(C)c(=O)n4C)n2)c(C)c1` [Compound 272], the 50% inhibitory concentration (IC50) was more than 10 µM.

In the case of `CC(C)N(c1ccccc1)c1ccc(NC(=O)Cn2cnc3c2c(=O)n(C)c(=O)n3C)cc1` [Compound 273], the concentration for half-maximal inhibition (IC50) was not above 10 µM.

Turning to `Cn1c(=O)c2c(ncn2CC(=O)NCc2cccc(C(F)(F)F)c2)n(C)c1=O` [Compound 275], the IC50 was more than 10 µM.

With `Cn1c(=O)c2c(ncn2CC(=O)Nc2ccc(F)c(F)c2F)n(C)c1=O` [Compound 276], the half-maximal inhibitory concentration (IC50) was more than 10 µM.

Regarding `Cn1c(=O)c2c(ncn2CC(=O)NC2CCCCCCC2)n(C)c1=O` [Compound 278], the IC50 is more than 10 µM.

For the compound `CC1CCCCC1NC(=O)Cn1cnc2c1c(=O)n(C)c(=O)n2C` (stereo not drawn) [Compound 279], the IC50 is more than 10 µM.

As to `COc1ccc(NC(=O)Cn2cnc3c2c(=O)n(C)c(=O)n3C)cc1Cl` [Compound 280], the concentration for half-maximal inhibition (IC50) is not above 10 µM.

As for `CSc1cccc(NC(=O)Cn2cnc3c2c(=O)n(C)c(=O)n3C)c1` [Compound 282], the IC50 is not above 10 µM.

Turning to `CCN(C(=O)Cn1cnc2c1c(=O)n(C)c(=O)n2C)c1ccccc1` [Compound 283], the IC50 is more than 10 µM.

With `Cn1c(=O)c2c(ncn2CC(=O)NCc2cccc(Cl)c2)n(C)c1=O` [Compound 286], the half-maximal inhibitory concentration (IC50) is more than 10 µM.

As for `Cc1sc(NC(=O)Cn2cnc3c2c(=O)n(C)c(=O)n3C)nc1-c1ccc(Cl)cc1` [Compound 287], the half-inhibitory concentration (IC50) was not above 10 µM.

For the compound `Cn1c(=O)c2c(ncn2CC(=O)N(Cc2ccccc2)CC(F)(F)F)n(C)c1=O` [Compound 288], the IC50 was more than 10 µM.

For `Cn1c(=O)c2c(ncn2CC(=O)NC(C)(C)C)n(C)c1=O` [Compound 289], the IC50 was more than 10 µM.

For the compound `COC(=O)c1cccc(NC(=O)Cn2cnc3c2c(=O)n(C)c(=O)n3C)c1` [Compound 290], the concentration for half-maximal inhibition (IC50) is not above 10 µM.

Turning to `CCN(C(=O)Cn1cnc2c1c(=O)n(C)c(=O)n2C)c1ccc(F)cc1` [Compound 291], the IC50 is not above 5 µM.

For `Cc1ccc(NC(=O)NC(=O)Cn2cnc3c2c(=O)n(C)c(=O)n3C)c(C)c1` [Compound 292], the IC50 was more than 10 µM.

With `CN(CC(=O)Nc1ccc(F)c(F)c1F)C(=O)Cn1cnc2c1c(=O)n(C)c(=O)n2C` [Compound 293], the IC50 is more than 10 µM.

Turning to `CC(C(=O)Nc1cccc(Cl)c1)n1cnc2c1c(=O)n(C)c(=O)n2C` (stereo not drawn) [Compound 297], the IC50 was more than 10 µM.

Turning to `Cc1cc(Cl)ccc1NC(=O)Cn1cnc2c1c(=O)n(C)c(=O)n2C` [Compound 298], the concentration for half-maximal inhibition (IC50) is more than 10 µM.

As to `CC(C(=O)N(C)c1ccccc1)n1cnc2c1c(=O)n(C)c(=O)n2C` (stereo not drawn) [Compound 301], the half-inhibitory concentration (IC50) was more than 10 µM.

Turning to `CC(C(=O)Nc1ccccc1)n1cnc2c1c(=O)n(C)c(=O)n2C` (stereo not drawn) [Compound 302], the IC50 is more than 10 µM.

`COc1ccccc1NC(=O)C(C)n1cnc2c1c(=O)n(C)c(=O)n2C` (stereo not drawn) [Compound 303]: the half-inhibitory concentration (IC50) was more than 10 µM.

Consider `Cn1c(=O)c2c(ncn2CC(=O)Nc2ccc(Cl)cc2F)n(C)c1=O` [Compound 304], for which the IC50 is not above 5 µM.

`Cc1ccc(NC(=O)Cn2cnc3c2c(=O)n(C)c(=O)n3C)cc1F` [Compound 306]: the IC50 is more than 10 µM.

As to `Cn1c(=O)c2c(ncn2CC(=O)NCC(c2ccco2)N2CCCC2)n(C)c1=O` (stereo not drawn) [Compound 308], the IC50 was more than 10 µM.

Take `CC(=O)c1ccccc1NC(=O)Cn1cnc2c1c(=O)n(C)c(=O)n2C` [Compound 309]: the IC50 was more than 10 µM.

As for `CC(NC(=O)Cn1cnc2c1c(=O)n(C)c(=O)n2C)c1ccc2c(c1)OCCO2` (stereo not drawn) [Compound 310], the 50% inhibitory concentration (IC50) was more than 10 µM.

In the case of `CSc1ccccc1NC(=O)CN(C)C(=O)Cn1cnc2c1c(=O)n(C)c(=O)n2C` [Compound 311], the concentration for half-maximal inhibition (IC50) was more than 10 µM.

In the case of `Cn1c(=O)c2c(ncn2CC(=O)NCC(c2cccs2)N2CCCC2)n(C)c1=O` (stereo not drawn) [Compound 312], the IC50 is more than 10 µM.

As to `CC(C(=O)Nc1cc(Cl)cc(Cl)c1)n1cnc2c1c(=O)n(C)c(=O)n2C` (stereo not drawn) [Compound 314], the IC50 was not above 10 µM.

Turning to `CSc1ccccc1NC(=O)Cn1cnc2c1c(=O)n(C)c(=O)n2C` [Compound 316], the IC50 was more than 10 µM.

Regarding `Cn1c(=O)c2c(ncn2CC(=O)NCC(c2ccc(F)cc2)N2CCOCC2)n(C)c1=O` (stereo not drawn) [Compound 317], the IC50 is more than 10 µM.

Regarding `CC(C(=O)Nc1cccc(C(F)(F)F)c1)n1cnc2c1c(=O)n(C)c(=O)n2C` (stereo not drawn) [Compound 318], the 50% inhibitory concentration (IC50) is more than 10 µM.

As for `COc1ccc(CNC(=O)Cn2cnc3c2c(=O)n(C)c(=O)n3C)cc1OC` [Compound 319], the half-inhibitory concentration (IC50) was more than 10 µM.

For `Cn1c(=O)c2c(ncn2CC(=O)NCCOc2ccc(C(C)(C)C)cc2)n(C)c1=O` [Compound 320], the half-maximal inhibitory concentration (IC50) is not above 10 µM.

For `Cn1c(=O)c2c(ncn2CC(=O)NCC(c2ccccc2)N2CCCC2)n(C)c1=O` (stereo not drawn) [Compound 321], the half-maximal inhibitory concentration (IC50) is more than 10 µM.

For the compound `CN(CCCNC(=O)Cn1cnc2c1c(=O)n(C)c(=O)n2C)c1ccccc1` [Compound 322], the half-inhibitory concentration (IC50) is more than 10 µM.

For the compound `Cc1cc(C)n(CCCNC(=O)Cn2cnc3c2c(=O)n(C)c(=O)n3C)n1` [Compound 323], the 50% inhibitory concentration (IC50) was more than 10 µM.

Turning to `CN(CCOc1ccccc1)C(=O)Cn1cnc2c1c(=O)n(C)c(=O)n2C` [Compound 324], the half-inhibitory concentration (IC50) is not below 20 µM.

As for `CC(NC(=O)Cn1cnc2c1c(=O)n(C)c(=O)n2C)c1ccc(-n2ccnc2)cc1` (stereo not drawn) [Compound 325], the 50% inhibitory concentration (IC50) was not below 20 µM.

With `Cn1c(=O)c2c(ncn2CC(=O)Nc2ccc3c(c2)OCCCO3)n(C)c1=O` [Compound 326], the IC50 was not above 10 µM.

With `CC(C(=O)Nc1ccc(F)cc1)n1cnc2c1c(=O)n(C)c(=O)n2C` (stereo not drawn) [Compound 327], the half-inhibitory concentration (IC50) was more than 10 µM.

Regarding `Cc1cccc(NC(=O)C(C)n2cnc3c2c(=O)n(C)c(=O)n3C)c1` (stereo not drawn) [Compound 328], the IC50 is not below 30 µM.

With `Cc1cc(C)c(NC(=O)Cn2cnc3c2c(=O)n(C)c(=O)n3C)c(Cl)c1` [Compound 330], the IC50 was more than 10 µM.

On to `CC(C(=O)Nc1ccc2c(c1)OCO2)n1cnc2c1c(=O)n(C)c(=O)n2C` (stereo not drawn) [Compound 331], for which the IC50 was more than 10 µM.

As for `CC(C)C(C)NC(=O)Cn1cnc2c1c(=O)n(C)c(=O)n2C` (stereo not drawn) [Compound 332], the IC50 was more than 10 µM.

On to `CC(C(=O)Nc1ccccc1F)n1cnc2c1c(=O)n(C)c(=O)n2C` (stereo not drawn) [Compound 334], for which the half-maximal inhibitory concentration (IC50) was more than 10 µM.

In the case of `Cn1c(=O)c2c(ncn2CC(=O)NCCc2c[nH]c3ccccc23)n(C)c1=O` [Compound 335], the IC50 was more than 10 µM.
